Reference: patent publication EP4527828A1, “BIPHENYL COMPOUND, PHARMACEUTICAL COMPOSITION, METHOD FOR PREPARING SAME, AND USE THEREOF” (Longivitron (Suzhou) Biotechnology Co., Ltd, priority 2022, dated 2023)
Read-outs that look alike come from different tables or passages of the source.

Legend:
Format in all cases: binding
[1] = molecular target: T1, Mouse LAG3 protein (Mus musculus, UniProt Q61790); experiment: SPR interaction assay, CM5 chip amino coupling, mouse LAG3; conditions: for Kd / Rmax / Note / kon / koff: ligand Mouse LAG3 protein; for Note: bound or not bound; for kon: read-out: Ka; for koff: read-out: Kd
T1 sequence (Q61790 24-521): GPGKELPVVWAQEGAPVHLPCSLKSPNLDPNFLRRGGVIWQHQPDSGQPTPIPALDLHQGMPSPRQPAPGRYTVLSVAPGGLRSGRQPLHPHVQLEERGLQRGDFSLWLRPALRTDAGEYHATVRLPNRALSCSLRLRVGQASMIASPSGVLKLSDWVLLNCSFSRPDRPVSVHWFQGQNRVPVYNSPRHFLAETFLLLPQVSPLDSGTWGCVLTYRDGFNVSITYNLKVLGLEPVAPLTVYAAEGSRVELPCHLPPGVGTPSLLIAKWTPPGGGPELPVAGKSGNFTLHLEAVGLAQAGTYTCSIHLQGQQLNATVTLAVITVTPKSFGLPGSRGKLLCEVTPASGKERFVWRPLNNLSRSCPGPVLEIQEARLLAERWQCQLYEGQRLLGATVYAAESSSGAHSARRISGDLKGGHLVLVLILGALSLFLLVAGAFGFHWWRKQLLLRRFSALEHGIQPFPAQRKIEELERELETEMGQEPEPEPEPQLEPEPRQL
Text: (§1) A surface plasmon is an electromagnetic wave on a metal surface and is generated by the interaction of photons and electrons which are freely vibrated. Surface plasmon resonance (SPR) is an optical phenomenon that occurs on the surfaces of two media, and such a phenomenon can be induced by photons or electrons. When light enters an optically thinner medium from an optically denser medium, the phenomenon of total reflection occurs, and an evanescent wave is generated and enters the optically thinner medium. When the totally reflected evanescent wave meets the plasmon wave on the metal surface, resonance may occur, the energy of the reflected light decreases, and a resonance peak occurs on the energy spectrum of the reflected light. Such a resonance is called surface plasmon resonance. The angle of incidence causing the surface plasmon resonance is called an SPR angle. An SPR biosensor provides a sensitive, non-labeled detection technique for monitoring intermolecular interactions in real time. The sensor detects the change in the SPR angle, and the SPR is related to the refractive index of the metal surface. When an analyte binds to the chip surface, the refractive index of the chip surface changes, thus causing the change in the SPR angle. This is the basic principle for the SPR biosensor to detect intermolecular interactions in real time. During the interaction analysis, the change in the SPR angle is recorded on the sensorgram in real time.
(§2) Through the information query, the theoretical isoelectric point of the LAG3 protein is about 9.82, and the amino coupling method was contemplated to immobilize the protein. Since the main ligands of the LAG3 protein are FGL1 and MHCII proteins, after the LAG3 protein was coupled, the FGL1 protein sampling method was used to verify the protein activity.
(§3) Protein coupling buffer solution: 1.05× PBS-P+; 1.02× PBS-P+
(§4) Interaction buffer solution: 1.0× PBS-P+, 5% DMSO; 1.0× PBS-P+, 2% DMSO
(§5) In this experiment, by using the CM5 chip amino coupling method, the human LAG3 protein was immobilized to the Fc2 or Fc3 channel, and the mouse LAG3 protein was immobilized to the Fc3 or Fc4 channel.
(§6) LAG3 protein coupling conditions were as follows: the concentration was about 25 µg/mL, the system was sodium acetate solution with a pH of 5.5, the chip activation time was 420 s, and the blocking time was 420 s.
(§7) LAG3 protein coupling conditions were as follows: the concentration was about 50 µg/mL, the system was sodium acetate solution with a pH of 4.5, the chip activation time was 420 s, and the blocking time was 420 s.

[2] = molecular target: T2, Human LAG3 protein (Homo sapiens, UniProt P18627); experiment: SPR interaction assay, CM5 chip amino coupling, human LAG3; conditions: for Rmax / Kd / Note / kon / koff: ligand Human LAG3 protein; for Kd: Compound 9 fitted in steady-state mode; for Note: bound or not bound; for kon: read-out: Ka; for koff: read-out: Kd
T2 sequence (P18627 23-525): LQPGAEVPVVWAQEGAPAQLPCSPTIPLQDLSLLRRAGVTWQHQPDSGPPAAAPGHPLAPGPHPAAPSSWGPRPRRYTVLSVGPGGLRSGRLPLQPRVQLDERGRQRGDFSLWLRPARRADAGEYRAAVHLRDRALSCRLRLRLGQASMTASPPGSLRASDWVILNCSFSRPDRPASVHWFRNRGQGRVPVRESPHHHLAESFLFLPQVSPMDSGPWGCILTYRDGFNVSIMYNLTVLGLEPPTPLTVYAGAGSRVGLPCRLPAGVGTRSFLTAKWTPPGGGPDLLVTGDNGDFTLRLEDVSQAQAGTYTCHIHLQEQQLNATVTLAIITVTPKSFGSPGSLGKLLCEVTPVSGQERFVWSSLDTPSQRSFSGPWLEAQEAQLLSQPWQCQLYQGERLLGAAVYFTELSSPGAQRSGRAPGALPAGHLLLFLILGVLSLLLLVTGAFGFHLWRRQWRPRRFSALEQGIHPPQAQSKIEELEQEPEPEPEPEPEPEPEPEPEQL
Text: as §1, §2, §3, §4, §5, §6, §7

[3] = molecular target: T3, Human FGL1 protein (Homo sapiens, UniProt Q08830); experiment: SPR interaction assay, human FGL1; conditions: for Note: bound or not bound; for kon: read-out: Ka; for koff: read-out: Kd
T3 sequence (Q08830 23-312): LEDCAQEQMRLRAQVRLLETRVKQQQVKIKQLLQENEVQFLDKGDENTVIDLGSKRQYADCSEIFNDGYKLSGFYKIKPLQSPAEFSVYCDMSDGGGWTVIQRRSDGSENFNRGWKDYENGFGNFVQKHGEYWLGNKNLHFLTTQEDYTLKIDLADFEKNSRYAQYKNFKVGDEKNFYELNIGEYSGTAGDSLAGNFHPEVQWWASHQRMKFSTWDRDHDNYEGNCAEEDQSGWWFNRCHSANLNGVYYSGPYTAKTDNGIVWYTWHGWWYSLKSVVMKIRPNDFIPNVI
Text: as §1, §3, §4

[4] = SPR, ligand FGL1 protein, read-out: KD
[5] = text summary of Table 4, read-out: affinities with the new ligand FGL1 of LAG3

Row | SMILES | interaction with the mouse LAG3 protein [1] | Kd [1] [µM] | Rmax [1] [RU] | Note [1] | kon [1] [M⁻¹ s⁻¹] | koff [1] [s⁻¹] | interaction with the human LAG3 protein [2] | Rmax [2] [RU] | Kd [2] [µM] | Note [2] | kon [2] [M⁻¹ s⁻¹] | koff [2] [s⁻¹] | interaction with the human FGL1 protein ([3]; SPR) | Rmax ([3]; SPR, ligand FGL1 protein) [RU] | Note ([3]; SPR, ligand FGL1 protein) | Kd [3, 4] [µM] | kon ([3]; SPR, ligand FGL1 protein) [M⁻¹ s⁻¹] | koff ([3]; SPR, ligand FGL1 protein) [s⁻¹] | Kd [3, 5] [µM]
1 | CCCCCCOc1ccc(C(=O)O)cc1-c1cc(C(=O)NCCCCNC(=O)C(F)(F)F)ccc1OCCCCCC [Compound 8] | interacts with the mouse LAG3 protein | 5.42 | 3.955 | Bound | 1870 | 0.0101 | interacts with the human LAG3 protein | 8.639 | 7.76 | Bound | 446 | 0.00346 | interacts with the human FGL1 protein | 28.91 | Bound | 15.7 | 1470 | 0.0231 | ~10
2 | CCCCCCOc1ccc2cc1-c1cc(ccc1OCCCCCC)C(=O)CCCCCC2=O [Compound 4] | interacts with the mouse LAG3 protein | 13.2 | 5.214 | Bound | 1060 | 0.014 | interacts with the human LAG3 protein | 124.7 | 52.9 | Bound | 418 | 0.0221 | interacts with the human FGL1 protein | 14.02 | Bound | 23.2 | 2130 | 0.0504 | ~10
